According to patent publication US7476511B2, “Method of detecting and analyzing paclitaxel-mimetic compounds” (priority 2001, dated 2009):
Where two headings read alike, the source gives them in different places.

What was measured:
[1] = test system: paclitaxel binding site of microtubules; test: Binding of Flutax-2 to cross-linked microtubules by fluorescence anisotropy; set-up: species or system bovine
Description: The intensity of fluorescence of Flutax-2 changes very little with the binding to microtubules. There is a small change in the excitation maximum from 494 nm to 495 nm (isosbestic point at 500 nm ) and a blue shift in emission from 523 nm to 520 nm (not shown here; isosbestic point at 525 nm; Diaz, J. F. et al.). […] The excitation anisotropy spectrum of a 50 nM solution of microtubule sites/Flutax-2 was compared with the spectrum of a similar solution in which the binding sites were blocked by an excess of paclitaxel and of free Flutax-2. […] The anisotropy values determined for the 495 nm band (emission 520 nm; GAB buffer containing glycerol, 25° C.) were: free Flutax-2 (50 nm ), rmin=0.055; in the presence of microtubules blocked with paclitaxel, r=0.060; Flutax-2 specifically bound to the microtubules, rmax=0.29 (the last was determined by valuation of 50 nm Flutax-2 with growing concentrations of microtubules). These changes are consistent with a strong immobilisation of the fluorophore by the binding. […]
Tubulin from bovine brain was purified and stored, and its concentration was measured as has been described (Andreu, J. M. et al.). […]
Fluorescence spectra were obtained corrected with a Fluorolog-3-221 photon count instrument (Jobin Yvon-Spex, Longlumean, France), with an emission bandwidth of 5 nm and excitation of […] at 25° C. […] The multiple measurements of anisotropy were made with a PolarStar microplate reader (BMG Labtechnologies, Offenburg, Germany) at 25° C. The solutions were excited with 200 pulses of vertically polarised light (band-pass filter 485-P, 480-492 nm ) and the emission was simultaneously analysed with vertical and horizontal polarisation filters (band-pass 520-P, 515-550 nm ). […] The values of well blanks with microtubules and without Flutex-2 were subtracted from the values of fluorescence intensity (the blanks typically represented less than 4% of the measurement). […]

[2] = test system: paclitaxel binding site of microtubules; test: Competition test: displacement of Flutax-2 from microtubules, fluorescence anisotropy in microplate; set-up: species or system bovine; settings: for equilibrium binding constant to microtubules (numerical analysis of displacement isotherms) / displacement of Flutax-2 / inhibition of the anisotropy of microtubule Flutax-2: 50 nM Flutax-2/50 nM microtubule sites; for equilibrium binding constant to microtubules (numerical analysis of displacement isotherms): 25° C., mean of several determinations; for equilibrium constant K, best fit of competition isotherm (FIG. 2): GAB-GDP buffer at 25° C., 50 nM Flutax-2, 50 nM sites
Description: Using Flutax-2 as a reference probe for the binding site to paclitaxel, the binding of other non-fluorescent ligands which displace Flutax-2 from the microtubules (see FIG. 1) can easily be measured by the changes in […] fluorescence properties in a competition test. The change of fluorescence anisotropy, which was analysed in 96-well plates with a microplate reader, was used. […] Baccatine III is equivalent to the taxane ring system, in which the group C-13 OH substitutes the paclitaxel side chain (see chemical structures in FIG. 2). The C-13 side chain has previously been considered as an essential determinant for recognition of paclitaxel.
Tubulin from bovine brain was purified and stored, and its concentration was measured as has been described (Andreu, J. M. et al.). Prior to its use it was balanced in 10 mM sodium phosphate, 1 mM EGTA, 0.1 mM GTP, 3.5M glycerol pH 6.8, with a Sephadex G-25 gravity column used cold, and it was centrifuged cold for 10 min at 50,000 in a TLA 100.4 rotor (Beckman) cold. The 50 μM tubulin was made 6 mM in MgCl2 (in other words, glycerol assembly buffer GAB, final pH 6.5) and 1 mM GTP, it was assembled in microtubules at 37° C. and these were gently cross-linked with 20 mM glutaraldehyde, the reaction being stopped with NaBH4 as has been described (Diaz, J. F. et al.). […] The cross-linked microtubules were dialysed against GAB-0.1 mM nucleotide (GTP or GDP) for more than 16 h, cold, in dialysis cassettes (Pierce) and were conserved frozen drop by drop in liquid nitrogen, or at 4° C. with 0.05% of sodium azide. This conservation method for the cross-linked microtubules by means of dialysis against a conservation and cryopreservation buffer is claimed in the present invention.
These competitive measurements were made with the polarisation plate reader. A solution of known concentrations of binding sites of microtubule and Flutax-2, both close to 50 nM, in GAB-GDP buffer, was freshly prepared starting from the concentrated reserves of cross-linked microtubules and Flutax-2. It was dispensed in aliquots of 200 μL (final volume) at room temperature in 96-well plates (Costar cat. No. 3599, the wells at the edges were not used). […] The ligands to test were added in small volumes of DMSO (concentration of final DMSO 2% v/v) in order to make the desired duplicated concentrations. A check was also made that the paclitaxel was not adsorbed onto the plate during the test, using ^3H-paclitaxel and a scintillation counter. The wells without protein and without Flutax-2 were included for calibration and background measurements respectively (see anisotropy measurements, above). The plates were stirred by rotation for 10 minutes and were measured twice within 30-90 minutes following balancing at 25° C. in the microplate reader. The anisotropy data of Flutax-2 was calculated with the evaluation software (BMG) and was traced against the total concentration of the competitor.
With the aim of measuring the binding affinity of a ligand (L) which displaces the reference ligand Flutax-2 from its microtubule binding site (S), unitary stoichiometry was assumed, with the fractional binding of Flutax-2 starting from the anisotropy being determined as [F]b/[S]0=[F]0(r−rmin)/[S]0(rmax−rmin) and the following expressions were applied K(F)=[SF]/[S] [F] [9] K(B)=[SB]/[S] [B] [10] [F]=[F]0−[SF] [11] [L]=[L]0−[SL] [12]

[3] = test system: paclitaxel binding site of microtubules; test: Displacement of 3H-paclitaxel from microtubules by sedimentation and scintillation count; settings: 1 mg mL^−1 bovine serum albumin present
From the text: In a series of control measurements, the displacement of the interaction of ^3H-paclitaxel with microtubules by baccatine III and Flutax-2 was evidenced by sedimentation and scintillation count. […] This confirmed that baccatine III is recognised by the paclitaxel binding site of microtubules. Nevertheless, with the aim of having the majority of the radioactive ^3H-paclitaxel tracer in solution, instead of being absorbed into the polycarbonate tube of the table-top ultracentrifuge, it was necessary to include 1 mg mL^−1 of bovine serum albumin, which binds the paclitaxel (keeping it available for interaction with the microtubules) and also the Flutax-2 (decreasing its apparent affinity). These adsorption processes make it impossible to have any direct rigorous measurement of the affinity of the binding of paclitaxel to microtubules in our hands, and therefore of the affinity of its competitors using paclitaxel as a reference ligand in these diluted tests. The additional disadvantages of the binding tests of ^3H-paclitaxel in comparison with the homogeneous test of the anisotropy of fluorescent taxoid are the operations of centrifugation, separation and radioactive measurement that are required. […]

[4] = test system: cross-linked microtubules; test: Concentration of taxoid binding sites by sedimentation and spectrophotometric measurement of Flutax-2; set-up: species or system bovine; settings: 5 μM Flutax-2, GAB-GDP buffer, 25° C.
Description: Their concentration of total tubulin was measured after diluting them in 1% SDS using an extinction coefficient of 107,000 M^−1 cm^−1 at 275 nm (Diaz, J. F. and Andreu, J. M.). […] The concentration of binding sites of taxoid was determined by addition of growing concentrations of microtubules cross-linked to 5 μM Flutax-2 in the GAB-GDP buffer, sedimentation (Diaz, J. F. et al., 50,000 rpm in a Beckman TLA 120 rotor at 25° C.) and spectrophotometric measurement of Flutax-2. It was observed that the preparations of cross-linked microtubules bound 0.75±0.05 of Flutax-2 per total tubulin (in other words, a minimum of 95% of the bound tubulin was active binding this ligand). The control measurements using ^3H-paclitaxel and liquid scintillation gave values similar to Flutax-2. Once the anisotropy values of Flutax bound to microtubule and free were determined, the number of sites could also be determined by valuation of diluted solutions of microtubules cross-linked with Flutax-2 (see further below). The concentration of binding sites of taxoids of the preparations of cross-linked microtubules turned out to be stable in liquid nitrogen, decaying at speeds between 0.02 and 0.05 day^−1 at 4° C. (mean lives of five and two weeks respectively). The cross-linked microtubules were used within one average life starting from the preparation.

[5] = Description: Standard concentrated solutions were prepared and were kept at −20° C. in a dry atmosphere. The paclitaxel (from the National Cancer Institute, Bethesda, Md.) was measured spectroscopically at 273 nm following dilution in methanol, using an extinction coefficient of 1,700 M^−1 cm^−1 (Diaz, J. F. and Andreu, J. M.) ^3H-paclitaxel (4 Ci mmol^−1) was obtained from Moravek Biochemicals (Brea, Calif.), Docetaxel (Taxotere) was supplied by Rhône-Poulenc Rorer (Antony, France). […] The methyl ester of the C-13 side chain of paclitaxel was supplied by E. Baloglu and D. G. I. Kingston of the Virginia Polytechnic Institute (Blacksburg, Va.).

For `CC(=O)O[C@H]1C(=O)[C@@]2(C)[C@H]([C@H](OC(=O)c3ccccc3)[C@]3(O)C[C@H](OC(=O)[C@H](O)[C@@H](NC(=O)c4ccccc4)c4ccccc4)C(C)=C1C3(C)C)[C@]1(OC(C)=O)CO[C@@H]1C[C@@H]2O` [paclitaxel], the “cancellation of the binding of Flutax-2 to microtubules” value ([1]; 10 μM paclitaxel) was “entirely annulled”, the “equilibrium binding constant to microtubules (numerical analysis of displacement isotherms)” value [2] was “(3.7±1.5)×10^7 M^−1” and the “equilibrium constant K, best fit of competition isotherm (FIG. 2)” value (“equilibrium constant K, best fit” below) [2] was 3.2e+07 M⁻¹.
In the case of `CC(=O)O[C@@]12CO[C@@H]1C[C@H](O)[C@@]1(C)C(=O)[C@H](O)C3=C(C)[C@@H](OC(=O)[C@H](O)[C@@H](NC(=O)OC(C)(C)C)c4ccccc4)C[C@@](O)([C@@H](OC(=O)c4ccccc4)[C@H]21)C3(C)C` [docetaxel, Docetaxel], the “equilibrium binding constant to microtubules (numerical analysis of displacement isotherms)” value [2] is reported as “(6.0±2.3)×10^7 M^−1”, the “equilibrium constant K, best fit” value [2] is reported as 8e+07 M⁻¹ and the “ratio of affinities of docetaxel to paclitaxel” value ([2]; on the basis of the individual experiments) is reported as 2.7±0.3.
For `CC(=O)O[C@H]1C(=O)[C@]2(C)[C@@H](OC(=O)[C@H](C)NC(=O)c3ccc4c(c3)C(=O)OC43c4cc(F)c(O)cc4Oc4cc(O)c(F)cc43)C[C@H]3OC[C@@]3(OC(C)=O)[C@H]2[C@H](OC(=O)c2ccccc2)[C@]2(O)C[C@H](OC(=O)[C@H](O)[C@@H](NC(=O)c3ccccc3)c3ccccc3)C(C)=C1C2(C)C` [Flutax-2, 7-O-[N-(2,7-difluoro-4′-fluoresceincarbonyl)-L-alanyl]paclitaxel], the “equilibrium binding constant of Flutax-2 (FIG. 2 legend)” value ([1]; GAB-GDP buffer at 25° C.) was 1.5e+08 M⁻¹, the equilibrium constant of the binding Kb (binding isotherm from change of anisotropy) ([1]; GAB-GDP buffer at 25° C.) was 1.15e+08 M⁻¹ and the “apparent affinity compared with fluorescence anisotropy tests” value [3] was “seven times lower”. The “Flutax-2 bound per total tubulin” value [4] was 0.75±0.05.
For `CC(=O)O[C@H]1C(=O)[C@@]2(C)[C@H]([C@H](OC(=O)c3ccccc3)[C@]3(O)C[C@H](O)C(C)=C1C3(C)C)[C@]1(OC(C)=O)CO[C@@H]1C[C@@H]2O` [baccatine III, Baccatine III], the “displacement of Flutax-2 / inhibition of the anisotropy of microtubule Flutax-2” value [2] was “entirely inhibited”, the “equilibrium binding constant to microtubules (numerical analysis of displacement isotherms)” value [2] was 1.5±0.5)×10^5 M^−1 and the “equilibrium constant K, best fit” value [2] was 150000 M⁻¹. For the same compound, the “total concentrations needed for inhibition relative to paclitaxel” value ([2]; entire inhibition of anisotropy) was “approximately 200 times” and the “solubility” value ([5]; pH 6.5) was “soluble at the concentrations used”.
With `COC(=O)C(O)C(NC(=O)c1ccccc1)c1ccccc1` (stereo not shown) [methyl ester of the C-13 side chain, methyl ester of the C-13 side chain of paclitaxel] the “displacement of Flutax-2 / inhibition of the anisotropy of microtubule Flutax-2” value [2] was “inactive”, the “equilibrium binding constant to microtubules (numerical analysis of displacement isotherms)” value [2] was < 10^3 M^−1 and the “K of simulated low affinity binding (line through data, FIG. 2)” value ([2]; simulation, data similar to controls) was 700 M⁻¹. It also gave a solubility [5] of no less than 750 µM.
